System: Panc-02 cells
Details: concentration used as equivalent CB dose
Experimental: Panc-02 cells or NIT-cells were seeded in 96-well plates. Cells were treated with various miR or CB-loaded SLNs formulations. TCA was used to fix the cells after treatment. The wells were then stained with sulforhodamine B (SRB) and rapidly rinsed with acetic acid. Following air drying. Tris base was added to each well, and the plates were examined using an ELISA reader. Cell viability (%)=(The absorbance value of treated cells)(The absorbance value of untreated cells)×100

Structure (SMILES): Cc1cc2c(C(N)=O)cccc2n1-c1nc2c(c(NCc3ccccc3)n1)COCC2 [CB, CB-5083]
- IC30: 0.21 µM
